From patent US4826873A, “2,3-dihydroxy-3-phenyl-N-(2-phenyl-ethyl)-propionic acid amides derivatives thereof” (priority 1986, dated 1989)

Tests used:
[1] = tested on: NADPH-cytochrome c reductase; experiment: Hepatic NADPH-cytochrome c reductase in mice (Table 7); format: in vivo, mice (male Kunming strain)
Procedure: (§1) Male Kunming strain mice weighing 18-22 grams were used throughout the experiments. The compound to be tested was suspended in 5% Tween 80 and given orally by gavage. The vehicle of 5% Tween 80 solution was administered to control mice via the same route. In the vitro experiments,the compound was dissolved in dimethylformamide and added directly into the incubation mixture.
(§2) The liver microsomal cytochrome P-450 plays a key role in the detoxification of xenobiotics. […] Mice were administered 250 mg/kg of the compound once daily for 3 days. The control mice received the vehicle. The mice were killed after fasting overnight. Liver microsomes were prepared and microsomal monooxygenases were determined.

[2] = tested on: CCl4 hepatotoxicity in mice; experiment: Protective action against CCl4 (0.1%) hepatotoxicity in mice (Table 3); format: in vivo, mice (male Kunming strain); details: for SGPT (± SE): two doses, 9 per group, control 3016 ± 23; for SGPT (± SE) / Liver lipids: CCl4 0.1% 10 ml/kg i.p.; for Liver lipids: control 21.0 ± 4.2; for decreasing SGPT level and liver injuries (in words): CCl4 0.1% ip
Procedure: as §1
(§3) The parameters adopted for hepatotoxicicity included serum tranaminase (SGPT), liver triglycerides, and pathological examination of liver tissues. The liver lesions were scored mainly by the extent of inflammation and necrosis and graded from 0 to 4.
In another experiment, mice were first administered two doses of the compound and injected ip 10 ml/kg of 0.1% CCl4 in vegetable oil 24 h after administration of the second dose.

[3] = tested on: barbital sleeping time in mice; experiment: Barbital sleeping time in mice (Table 8); format: in vivo, mice (male Kunming strain)
Procedure: as §1
In another experiment, mice were given a dose of 250 mg/kg of the compound. […] The sleeping time was estimated by recording the interval of disappearance and recovery of righting reflex. […] It means that the prolongation of pentobarbital sleeping time by the compound was due to the inhibition of liver drug metabolism enzyme.

[4] = tested on: acetaminophen hepatotoxicity in mice; experiment: Anti-acetaminophen hepatotoxicity experiment in mice; format: in vivo, mice (male Kunming strain); details: 250 mg/kg two doses first day and same dose second day; acetaminophen 150 mg/kg ip
Procedure: as §1, §3
In the anti-acetaminophen hepatotoxicity experiment, mice received two doses (250 mg/kg) of the compound on the first day and the same dose on the second day. A dose of 150 mg/kg of acetaminophen was injected ip 6 h after the last dose of the compound, SGPT was determined and liver tissues were examined 20 h after acetaminophen injection.

[5] = tested on: CCl4 hepatotoxicity in mice; experiment: Therapeutic effect on CCl4 (0.15%) hepatotoxicity in mice (Table 2); format: in vivo, mice (male Kunming strain)
Procedure: as §1, §3
In the experiments of anti-CCl4 hepatotoxicity, mice were first injected 10 ml/kg of 0.15% CCl4 in vegetable oil every other day for three doses. The treatment of mice with the compound (250 mg/kg daily) started from the second to fifth day after the first injection of CCl4. The determination of SGPT and pathological examination of liver tissues were performed on day 7 of the experiment.

[6] = tested on: benzo(a)pyrene hydroxylase; experiment: Hepatic AHH / benzo(a)pyrene hydroxylase in mice (Table 7); format: in vivo, mice (male Kunming strain)
Procedure: as §1, §2

[7] = tested on: pentobarbital sleeping time in mice; experiment: Pentobarbital sleeping time in mice (Table 8); format: in vivo, mice (male Kunming strain); details: for Sleeping time (X ± SE): 250 mg/kg, 10 per group, control 71 ± 7, P <0.01, in min (unit assumed)
Procedure: as §1
(§4) In another experiment, mice were given a dose of 250 mg/kg of the compound. Sodium pentobarbital (50 mg/kg) was injected ip 1 and 24 h after administration of the compound. The sleeping time was estimated by recording the interval of disappearance and recovery of righting reflex. […] It means that the prolongation of pentobarbital sleeping time by the compound was due to the inhibition of liver drug metabolism enzyme.

[8] = tested on: CCl4-initiated lipid peroxidation of liver microsomes (MDA); experiment: CCl4-initiated lipid peroxidation of liver microsomes, MDA formation in vitro (Table 6); format: biochemical, mice (phenobarbital-induced); details: 1 mM compound
Procedure: as §1
(§5) CCl4 hepatotoxicity has been considered to be due to formation of free radicals which initiate lipid peroxidation or covalent binding to macromolecules of microsomes. Thus, the structures and function of cell membranes were destroyed. The effect of the compound on CCl4 induced lipid peroxidation (malonic dialdehyde, MDA, in vitro, and diene conjugates in vivo) and ^14 CCl4 covalent binding to lipids and proteins of microsomes were investigated.
MDA formation: The compound was pre-incubated with NADPH-reduced liver microsomes from phenobarbital-induced mice at 37° C. for 15 minutes, 10 ul of CCl4 (diluted with 20 volume of ethanol) was added into the incubation mixture, reincubated for 20 minutes. The production of MDA was determined by the method of thiobarbituric acid.

[9] = tested on: serum and liver transaminase (GPT); experiment: Effect on serum and liver transaminase (GPT) levels of normal mice (Table 5); format: in vivo, mice (male Kunming strain)
Procedure: as §1
Groups of mice were administered the vehicle or 250 mg/kg of the compound once daily for 7 consecutive days. The serum and liver GPT were determined 24 h after the last dose administration.

[10] = tested on: thioacetamide hepatotoxicity in mice; experiment: Protective action against thioacetamide hepatotoxicity in mice (Table 4); format: in vivo, mice (male Kunming strain)
Procedure: as §1, §3
In the experiment of thioacetamide hepatotoxicity, mice were treated according to the procedure of CCl4 intoxication as described above except that thioacetamide 50 mg/kg was injected instead of CCl4.

microsomal proteins = experiment: 14CCl4 covalent binding to microsomal proteins; format: biochemical, mice; details: 1 mM, NADPH-reduced liver microsomes
Procedure: as §1, §5
(§6) The condition of incubation was similar to that of MDA production. The compound was pre-incubated with NADPH-reduced liver microsomes for 10 minutes. The final concentration of the compound was 1 mM. ^14 CCl4 0.5 uci was added to the incubation mixture. Incubation was continued for another 60 minutes. The radio-activity of ^14 CCl4 in microsomal lipids and proteins was separated by the method of extraction of diene conjugates and counted by liquid scintillation.

aminopyrine demethylase = experiment: Hepatic aminopyrine demethylase in mice (Table 7); format: in vivo, mice (male Kunming strain)
Procedure: as §1, §2

cytochrome b5 = experiment: Hepatic cytochrome b5 in mice (Table 7); format: in vivo, mice (male Kunming strain)
Procedure: as §1, §2

CCl4 intoxicated mice = experiment: Effect on SGPT level of CCl4-intoxicated mice (pretreatment, Table 1); format: in vivo, mice (male Kunming strain)
Procedure: as §1, §3
Mice were divided into several groups.
The control group received the vehicle. The other groups were given two doses of the compound (250 mg/kg) at an interval of 8 h, respectively. All the mice were injected ip 10 ml/kg of 0.1% CCl4 in vegetable oil 24 h after the last administration of the compound. The mice were fasted for 16 h and sacrificed by decapitation. SGPT and liver lipids were determined. A piece of liver was processed into sectins for pathological examination.

liver = experiment: Liver weight and microsomal protein content (Table 7); format: in vivo, mice (male Kunming strain)
Procedure: as §1, §2

[11] = tested on: diene conjugates in liver microsomes of CCl4-intoxicated mice; experiment: CCl4-initiated lipid peroxidation, diene conjugates in vivo (Table 6); parameters: species or system mice (male Kunming strain); details: 250 mg/kg, 1 ml/kg CCl4
Procedure: as §1, §5
Diene conjugates: Mice were given two doses of 250 mg/kg of the compound on the first day and followed by the same dose on the second day and then received an injection of 1 ml/kg of CCl4. The mice were killed 1 h after the CCl4 injection. The diene conjugates in liver microsomes were extracted with chloroform-methanol (2:1) and washed with methanol 0.9% NaCl solution. The absorption of diene conjugates in the chloroform layer at 243 nm was measured with spectrophotometer.

microsomal lipids = experiment: 14CCl4 covalent binding to microsomal lipids; format: biochemical, mice; details: 1 mM, NADPH-reduced liver microsomes
Procedure: as §1, §5, §6

[12] = tested on: hepatic microsomal cytochrome P-450; experiment: Induction of hepatic microsomal cytochrome P-450 in mice (Table 7); format: in vivo, mice (male Kunming strain); details: for hepatic cytochrome P-450 (in words): 250 mg/kg once daily, 3 days
Procedure: as §1, §2, §4

[13] = listed as compound of the general formula (I), R1 =H, R2 =CH3

Structure (SMILES): CN(CCc1ccccc1)C(=O)C(O)C(O)c1ccccc1 (stereo not shown) [Compound, 2,3-dihydroxy-N-methyl-3-phenyl-N-(2-phenylethyl)-propionic acid amide]
- NADPH-cytochrome C reductase ([1]; 250 mg/kg day × 3, control 103 ± 2.5, P <0.01): 148 ± 2.5 nmol cytochrome c reduced/min/
- NADPH-cytochrome c reductase activity (in words) ([1]; 250 mg/kg once daily, 3 days): increased significantly
- SGPT (± SE) ([2]; 125 mg/kg): 2727 ± 162 unit %
- Liver lipids ([2]; 125 mg/kg): 21.0 ± 3.8 mg/g
- decreasing SGPT level and liver injuries (in words) ([2]; 125 mg/kg): without effect
- SGPT (± SE) ([2]; 250 mg/kg, footnote <0.01): 2270 ± 221 unit %
- Liver lipids ([2]; 250 mg/kg): 22.5 ± 5.5 mg/g
- decreasing SGPT level and liver injuries (in words) ([2]; 250 mg/kg): effective for decreasing SGPT level and liver injuries
- Liver lesions, Inflammation (Grade) ([2]; 250 mg/kg, graded from 0 to 4, control 1.70): 0.16 Grade
- Liver lesions, Necrosis (Grade) ([2]; 250 mg/kg, graded from 0 to 4, control 2.33): 0.72 Grade
- Sleeping time (X ± SE) ([3]; 1 h before barbital 200 mg/kg, 10 per group, control 197 ± 27, P >0.05): 172 ± 13
- barbital sleeping time (in words) ([3]; prior administration of compound): did not affect sleeping time
- anti-acetaminophen hepatotoxicity (in words) [4]: inactive
- effect on liver lesions (in words) ([5]; 250 mg/kg daily, day 7 examination): no effect on liver lesions
- SGPT lowering action (in words) ([5]; 250 mg/kg daily, second to fifth day after first CCl4): significant SGPT lowering action
- SGPT (x ± SE) ([5]; 250 mg/kg/day × 4, CCl4 0.15% in vegetable oil 10 ml/kg × 3, 8 per group, control 2695 ± 110, P <0.01): 1801 ± 312 unit %
- AHH ([6]; 250 mg/kg day × 3, control 2.6 ± 0.4, P <0.01): 6.2 ± 0.42 nmol/min/mg protein
- benzo(a)pyrene hydroxylase activity (in words) ([6]; 250 mg/kg once daily, 3 days): increased significantly
- Sleeping time (X ± SE) ([7]; 1 h before pentobarbital 50 mg/kg ip): 132 ± 13
- Sleeping time (X ± SE) ([7]; 24 h before pentobarbital 50 mg/kg ip): 45 ± 6
- pentobarbital sleeping time (in words) ([7]; compound 1 h prior to pentobarbital): prolonged markedly
- pentobarbital sleeping time (in words) ([7]; compound 24 h before pentobarbital): shortened significantly
- Inhibition of MDA [8]: 16.3%
- MDA production / lipid peroxidation of microsomes induced by CCl4 (in words) [8]: inhibited MDA production initiated by CCl4 in vitro
- MDA production / lipid peroxidation of microsomes induced by CCl4 (in words) [8, 13]: could inhibit lipid peroxidation
- MDA ([8]; number of determinations 3, control 35.5): 29.7 ± 4 OD × 100/1.5 mg
- SGPT level of normal mice (in words) ([9]; 250 mg/kg once daily, 7 days): slightly higher than that of the control but the difference was not significant
- SGPT (± SE) ([9]; normal mice, 250 mg/kg/day × 7, 8 per group, control 217 ± 17.5): 272 ± 27.8 unit %
- LGPT (liver GPT, ± SE) ([9]; normal mice, 250 mg/kg/day × 7, 8 per group, control 260 ± 11.6): 234 ± 13.6 unit %
- SGPT (± SE) ([10]; 250 mg/kg × 2, thioacetamide 50 mg/kg ip, 9 per group, control 1696 ± 231, footnote <0.05): 1045 ± 166 unit %
- Liver lipids (± SE) ([10]; 250 mg/kg × 2, thioacetamide 50 mg/kg ip, control 61 ± 11.7): 59 ± 11.3 mg/g
- protection against thioacetamide hepatotoxicity (conclusion, in words) ([10]; mouse, in vivo): protected against thioacetamide hepatotoxicity
- effect on SGPT levels, thioacetamide hepatotoxicity (in words) ([10]; thioacetamide 50 mg/kg): markedly lowered the SGPT levels
- covalent binding of 14CCl4 to microsomal proteins (in words) (microsomal proteins): not inhibited
- Aminopyrine demethylase (aminopyrine demethylase; 250 mg/kg day × 3, control 81 ± 63, P <0.01): 107 ± 5.8 nmol HCHO/min/mg protein
- aminopyrine demethylase activity (in words) (aminopyrine demethylase; 250 mg/kg once daily, 3 days): increased significantly
- Cytochrome b5 (cytochrome b5; 250 mg/kg day × 3, control 0.15 ± 0.01, P >0.05): 0.16 ± 0.016 nmol/mg protein
- cytochrome b5 (in words) (cytochrome b5; 250 mg/kg once daily, 3 days): increased significantly
- SGPT (X ± SE) (CCl4 intoxicated mice; 250 mg/kg × 2, oral, 0.1% CCl4 10 ml/kg ip 24 h later, 9 per group, control 1678 ± 261, P <0.05): 727 ± 266 unit %
- effect on elevated SGPT of CCl4-intoxicated mice (in words) (CCl4 intoxicated mice; 250 mg/kg × 2, CCl4 ip): significantly decreased the elevated SGPT
- hepatoprotective action against CCl4 (conclusion, in words) (CCl4 intoxicated mice; mouse, in vivo): has hepatoprotective action against CCl4
- Liver weight (liver; 250 mg/kg day × 3, 6 per group, control 4.0 ± 0.2, P >0.05): 4.3 ± 0.2 g %
- Microsomal protein (liver; 250 mg/kg day × 3, control 6.3 ± 0.3, P >0.05): 7.0 ± 0.5 mg/g liver
- increase of liver size (in words) (liver; 250 mg/kg once daily, 3 days): not seen
- increase of microsomal protein content (in words) (liver; 250 mg/kg once daily, 3 days): not seen
- diene conjugates production in livers (in words) ([11]; two doses first day and same dose second day): would not inhibit diene conjugates production
- Diene conjugates ([11]; in vivo, number of determinations 8, control 55.8 ± 2.3): 54.8 ± 3.3 OD × 100/g liver
- covalent binding of 14CCl4 to microsomal lipids (in words) (microsomal lipids): not inhibited
- Cytochrome P-450 ([12]; 250 mg/kg day × 3, control 0.87 ± 0.07, P <0.01): 1.23 ± 0.06 nmol/mg protein
- hepatic cytochrome P-450 (in words) [12]: increased significantly
- hepatic cytochrome P-450 (in words) [12, 13]: inducing action on hepatic cytochrome p-450
- biphasic actions on hepatic microsomal cytochrome p-450 (in words) ([12]; concluded from barbiturate sleeping times): inhibition followed by induction
